Patent US9074300B2 (priority 2001, dated 2015)

Key:
GST [1] = molecular target: T1, GST (Schistosoma japonicum, UniProt P08515); assay: SPR immobilization of GST to self-assembled monolayer; format: binding; conditions: monolayer from 1:99 mixture of alkanethiol 13 and penta(ethylene glycol) alkanethiol; GST 100 μM, PBS pH 7.4
GST [2] = molecular target: T1, GST; conditions: bound complex with GST
cutinase = cutinase (Fusarium vanettenii, UniProt P00590); format: biochemical, Fusarium solani pisi; conditions: read-out: Michaelis constant (KM)
Method: The release of PNP was followed using absorbance spectroscopy.
Spectrophotometric measurement was performed at room temperature using BECKMAN DU-640 spectrophotometer (BECKMAN COULTER, INC., Fullerton, Calif.).

GST [3] = molecular target: T2, GST (Rattus norvegicus, UniProt P08010); conditions: corresponds to affinity of 100 μM
Excerpt: For example, glutathione-S-transferase (GST) is an enzyme which is commonly used as an affinity handle for the purification of recombinant proteins. The target protein is expressed and purified as a GST fusion and may then be treated with a protease to remove the GST domain (Smith and Johnson, 1988).

GST [4] = molecular target: T2, GST; conditions: read-out: affinity of binding to GST; cited from earlier work

T1 sequence (P08515 2-218 limits assumed): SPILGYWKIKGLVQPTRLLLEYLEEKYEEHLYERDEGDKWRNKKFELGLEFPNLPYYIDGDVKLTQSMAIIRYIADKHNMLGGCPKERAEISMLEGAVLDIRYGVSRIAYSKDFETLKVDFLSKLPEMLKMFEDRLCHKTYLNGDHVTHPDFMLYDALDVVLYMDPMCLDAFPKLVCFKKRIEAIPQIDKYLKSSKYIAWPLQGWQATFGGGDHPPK
T2 sequence (P08010 2-218 limits assumed): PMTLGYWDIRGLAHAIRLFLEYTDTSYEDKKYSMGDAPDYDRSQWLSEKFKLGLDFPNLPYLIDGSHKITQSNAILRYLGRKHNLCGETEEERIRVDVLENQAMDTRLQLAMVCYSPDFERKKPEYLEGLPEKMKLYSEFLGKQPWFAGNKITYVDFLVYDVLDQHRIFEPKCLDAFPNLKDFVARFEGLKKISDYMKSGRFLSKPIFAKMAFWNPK
Sequence of cutinase (P00590 17-230): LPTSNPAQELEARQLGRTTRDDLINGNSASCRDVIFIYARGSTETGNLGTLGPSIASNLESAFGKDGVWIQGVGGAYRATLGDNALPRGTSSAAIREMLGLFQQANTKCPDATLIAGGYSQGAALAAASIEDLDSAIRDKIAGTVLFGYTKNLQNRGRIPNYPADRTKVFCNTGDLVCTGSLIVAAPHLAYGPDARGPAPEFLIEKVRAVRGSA

Hydroquinone-glutathione-EG5-alkanethiol [compound 13]
binding of GST to monolayer (GST [1]): this binding was irreversible

Glutathione-dichtoroquinone conjugate [formula (6)]
first-order rate constant of irreversible cross-linking reaction (GST [2]): 0.11 ± 0.03 min⁻¹

CCCC(=O)Oc1ccc([N+](=O)[O-])cc1 [4-nitrophenyl butyrate]
Km (cutinase): 1000 µM

N[C@@H](CCC(=O)N[C@@H](CS)C(=O)NCC(=O)O)C(=O)O [glutathione]
lifetime of the bound complex (GST [3]): about one
Kd (GST [4]): ~100 µM
